Tests used:
[1] = test system: IKKγ; assay: IKKγ phosphorylation (S85) and mono-ubiquitination after irradiation (immunoprecipitation / Western blot); type: cell-based; settings: irradiation (IR, 20 Gy); 1 hour pre-treatment
Experimental: Fig.7: (A) Immunoprecipitation of IKKγ from HEK293 lysates pre-treated for 1 hour with DMSO, MW01 or MW05, then irradiated (IR, 20 Gy) and lysed. (B) Western blot analysis of MEF cells pre-treated with DMSO, MW01, MW05 or ATM inhibitor KU55933 and irradiated (IR, 20 Gy). Lysates were subjected to SDS-PAGE/WB. The specific IKKγ S85 band (lower band) was identified by induction following irradiation and by sensitivity to ATMi and λ- phosphatase (λ-PP) treatment. (C) Western blot analysis of U2os cells pre-treated for 1 hour with the indicated substances, irradiated (IR, 20 Gy) and whole cell lysates probed for poly(ADP)-ribose. (D) Western blot analysis of cytoplasmic and nuclear fractions from U2-OS cells for p-ATM (S 1981), after 1 hour pre-treatment with DMSO, MW01 (10 µM), or MW05 (10 µM) and 45 min following irradiation (IR, 20 Gy). PARP1 and LDHA are used as loading controls for nuclear and cytoplasmic fractions respectively. […]
To identify inhibitors that selectively prevent DNA damage-induced NF-κB activation, we established a high-throughput screening platform quantifying p65 nuclear translocation, an essential step in NF-κB activation (Hayden and Ghosh, 2008). […] The IC50s of p65 nuclear translocation following both stimuli were determined for 21 compounds. […]

[2] = test system: U2-OS cells; assay: Western blot of apoptosis and DNA damage markers (cleaved caspase-3, PARP1 cleavage, p53, γH2AX) in U2-OS cells; type: cell-based; settings: for cleaved caspase-3, etoposide co-treatment: 10 µM plus etoposide 50 µM; for cleaved caspase-3, etoposide co-treatment / cleaved caspase-3, compound alone: 24 hours; for cleavage of PARP1, as apoptotic marker / cleaved caspase-3, compound alone: 10 µM; for cleavage of PARP1, as apoptotic marker: 8 hours after 10 Gy irradiation
Experimental: Fig.4: MW01 and MW05 reduce cell viability and increase p53-mediated apoptosis upon etoposide co-treatment. (A) Representative light microscopy images of U2-OS cells following treatment with DMSO, MW01 (10 µM), MW05 (10 µM), or etoposide (50 µM), or co-treatment with MW01 (10 µM) and etoposide (50 µM), or MW05 (10 µM) and etoposide (50 µM) at 24 (left) and 48 hours (right). (B) Quantification of cell viability using CellTiter-Fluor Cell Viability Assay at 6, 24, and 48 hours. Treatment with 0.1% SDS 30 minutes prior to assay was used as positive cell death control. (ns: not significant; *, **, ***: p<0.05, p<0.01, p<0.001). (C) U2-OS cells were treated with DMSO, MW01 (10 µM), MW 05 (10 µM), or etoposide (50 µM), or co-treated with MW01 (10 µM) and etoposide (50 µM), or MW05 (10 µM) and etoposide (50 µM), as indicated. After 24 hours, whole cell lysates were prepared and analyzed by Western blotting for p65 phosphorylation (S536), caspase-3 and cleaved caspase-3 (left panel) and for p53 and γH2AX) (right panel). Vinculin was used as loading control.
Fig.7: (A) Immunoprecipitation of IKKγ from HEK293 lysates pre-treated for 1 hour with DMSO, MW01 or MW05, then irradiated (IR, 20 Gy) and lysed. (B) Western blot analysis of MEF cells pre-treated with DMSO, MW01, MW05 or ATM inhibitor KU55933 and irradiated (IR, 20 Gy). Lysates were subjected to SDS-PAGE/WB. The specific IKKγ S85 band (lower band) was identified by induction following irradiation and by sensitivity to ATMi and λ- phosphatase (λ-PP) treatment. (C) Western blot analysis of U2os cells pre-treated for 1 hour with the indicated substances, irradiated (IR, 20 Gy) and whole cell lysates probed for poly(ADP)-ribose. (D) Western blot analysis of cytoplasmic and nuclear fractions from U2-OS cells for p-ATM (S 1981), after 1 hour pre-treatment with DMSO, MW01 (10 µM), or MW05 (10 µM) and 45 min following irradiation (IR, 20 Gy). PARP1 and LDHA are used as loading controls for nuclear and cytoplasmic fractions respectively. (E) mRNA expression analysis of CLK4 (top), 48 hours after transfection with siNC or siCLK4. mRNA expression analysis of NFKBIA (bottom), 48 hours after transfection with siNC or siCLK4. Values normalized to unstimulated siNC expressing cells. Statistical comparison was made between experimental conditions and paired siNC control. ns: not significant; **, ***, ****: p<0.01, p<0.001, p<0.0001. (F) Western blot analysis of p65 phosphorylation (S536) and CLK4 expression after transfection with siNC or siCLK4 in unstimulated, after 90 min irradiation (IR, 20 Gy), or after 20 min TNFα (10 ng/mL) conditions in U2-OS cells. Vinculin is used as loading control. Note that CLK4 and p-p65 were blotted on separate membranes, with respective vinculin blots underneath. (G) MW01 and MW05 are inhibitors of DNA damage-induced p65 nuclear translocation. U2-OS cells were pre-treated with DMSO, MW01 or MW05. Etoposide was added and after 2 hours cells were fixed and nuclei stained with DAPI. P65 and γH2AX were stained by immunofluorescence and images taken at a confocal Zeiss 710 LSM microscope with a 40x oil objective. (H) Western blot analysis of U2-OS cells 8 hours after 10 Gy irradiation following 1 hour pre-treatment with 10 µM DMSO, MW01, or MW05. Tubulin was used loading control. (I) mRNA expression analysis of BIRC3 in U2-OS cells 8 hours after 10 Gy irradiation following 1 hour pre-treatment with 10 µM DMSO, MW01, or MW05 and. Values were normalized to DMSO-treated unstimulated cells.
Cells were collected by scraping and lysed in Baeuerle lysis buffer supplemented with Protease (Thermo Fisher Scientific, 78429) and Phosphatase (Thermo Fisher Scientific, 78420) inhibitors after the appropriate treatment and time point. […]

| SMILES | IR-induced IKKy phosphorylation and mono-ubiquitination [1] | cleaved caspase-3, etoposide co-treatment [2] | cleavage of PARP1, as apoptotic marker [2] | cleaved caspase-3, compound alone [2] |
| --- | --- | --- | --- | --- |
| COc1ccc2c(c1OC)c(=O)n1c3ccc(O)cc3c3ccnc2c31 [MW01, 5-Hydroxy-10,11-dimethoxy-9H-benzo[c]indolo[3,2,1-ij][1,5]naphthyridin-9-one] | inhibited | increased | potentiated | did not observe an increase |
| COc1ccc2cc3c(N)nn(C(=O)c4cccc(N(C)C)c4)c3nc2c1 [MW05, (3-Amino-7-methoxypyrazolo[3,4-b]quinolin-1-yl)-[3-(dimethylamino)phenyl]methanone] | inhibited | increased | potentiated | did not observe an increase |

Source: patent publication EP4467141A1, “PYRAZOLO-QUINOLINES AS SELECTIVE INHIBITORS OF GENOTOXIC STRESS-INDUCED IKK/NF- KB PATHWAYS FOR CANCER THERAPY” (Max-Delbrück-Centrum für Molekulare Medizin in der …, priority 2023, dated 2024)
